Experimental data published in ChEMBL document CHEMBL1201862, “PubChem BioAssay data set” (2004).
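96-well plates; 48 h exposure; 5 concentrations. Endpoints by linear interpolation between flanking doses. Not reached: highest tested concentration assigned. GI50 = concentration required for 50% inhibition of growth.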 The source made the active and inactive calls. No stated cut-off is given here; in the data, active = GI50 up to about 1.1 µM and inactive = higher. Square brackets hold non-standard residues; d marks the D form. Peptide text beside a SMILES is read from it. * marks the point of attachment. Boc = CC(C)(C)OC(=O)*; Lac = C[CH](O)C(=O)O; OBn = c1ccc(CO*)cc1

Key:
Assay in all cases: NCI anticancer screen, dose series, 48 h
Hs-578T = tested on: Hs-578T
MDA-N = tested on: MDA-N
MDA-MB-435 = tested on: MDA-MB-435
PC-3 = tested on: PC-3
SK-MEL-2 = tested on: SK-MEL-2
ACHN = tested on: ACHN
RPMI-8226 = tested on: RPMI-8226
NCI-H226 = tested on: NCI-H226
OVCAR-5 = tested on: OVCAR-5
M14 = tested on: M14
IGROV-1 = tested on: IGROV-1
NCI-H522 = tested on: NCI-H522
SK-OV-3 = tested on: SK-OV-3
SN12C = tested on: SN12C
COLO 205 = tested on: COLO 205
SNB-19 = tested on: SNB-19
M19-MEL = tested on: M19-MEL
HOP-18 = tested on: HOP-18
XF498 = tested on: XF498
KM-20L2 = tested on: KM-20L2

| SMILES | GI50 (Hs-578T) | GI50 (MDA-N) | GI50 (MDA-MB-435) | GI50 (PC-3) | GI50 (SK-MEL-2) | GI50 (ACHN) | GI50 (RPMI-8226) | GI50 (NCI-H226) | GI50 (OVCAR-5) | GI50 (M14) | GI50 (IGROV-1) | GI50 (NCI-H522) | GI50 (SK-OV-3) | GI50 (SN12C) | GI50 (COLO 205) | GI50 (SNB-19) | GI50 (M19-MEL) | GI50 (HOP-18) | GI50 (XF498) | GI50 (KM-20L2) |
| --- | --- | --- | --- | --- | --- | --- | --- | --- | --- | --- | --- | --- | --- | --- | --- | --- | --- | --- | --- | --- |
| COc1cc(/C=C2\N=C(c3ccccc3)N(C3Nc4cc5c(cc4S3)NC(N3C(=O)/C(=C/c4cc(OC)c(OC)c(OC)c4)N=C3c3ccccc3)S5)C2=O)cc(OC)c1OC (stereo not drawn) | > 100 µM (inactive) | 74.3 µM (inactive) | > 100 µM (inactive) | 82.6 µM (inactive) | > 100 µM (inactive) | > 100 µM (inactive) | 28.8 µM (inactive) | > 100 µM (inactive) | > 100 µM (inactive) | > 100 µM (inactive) | > 100 µM (inactive) | 60.3 µM (inactive) |  |  |  |  |  |  |  |  |
| COP(=O)(OC)C(N)Cc1c[nH]c2ccccc12 (stereo not drawn) | > 100 µM (inactive) | > 100 µM (inactive) | > 100 µM (inactive) | > 100 µM (inactive) | > 100 µM (inactive) | > 100 µM (inactive) | > 100 µM (inactive) | > 100 µM (inactive) | > 100 µM (inactive) | > 100 µM (inactive) | > 100 µM (inactive) | > 100 µM (inactive) | > 100 µM (inactive) | > 100 µM (inactive) | > 100 µM (inactive) | > 100 µM (inactive) |  |  |  |  |
| O=C1CSC(/C=C/c2ccccc2)N1c1nc2cc3sc(N4C(=O)CSC4/C=C/c4ccccc4)nc3cc2s1 (stereo not drawn) | > 54 µM (inactive) | > 44.8 µM (inactive) | > 65.6 µM (inactive) | 54.2 µM (inactive) | 33.6 µM (inactive) | 42.1 µM (inactive) | 22 µM (inactive) | 17.1 µM (inactive) | > 65.6 µM (inactive) | > 100 µM (inactive) | > 62.1 µM (inactive) | 6.97 µM (inactive) | > 100 µM (inactive) | 18.3 µM (inactive) | 3.66 µM (inactive) | > 84.5 µM (inactive) |  |  |  |  |
| COc1cc2cc(C(=O)N3CC(CCl)c4ccc(NO)cc43)[nH]c2c(OC)c1OC (stereo not drawn) | 0.296 µM (active) | 0.249 µM (active) | 0.216 µM (active) | 0.0914 µM (active) | 0.126 µM (active) | 0.091 µM (active) | 0.117 µM (active) | 0.244 µM (active) | 0.15 µM (active) | 0.188 µM (active) | 0.0968 µM (active) | 0.0671 µM (active) | 0.284 µM (active) | 0.286 µM (active) | 0.468 µM (active) | 0.264 µM (active) |  |  |  |  |
| CC(OC(=O)C(Cc1ccccc1)NC(=O)C(Cc1ccccc1)NC(=O)OC(C)(C)C)C(=O)OCc1ccccc1 (stereo not drawn) (Boc-Phe-Phe-[Lac]-OBn; configuration not given here) | > 100 µM (inactive) | > 100 µM (inactive) | > 100 µM (inactive) | > 100 µM (inactive) | > 100 µM (inactive) |  | 94 µM (inactive) | > 100 µM (inactive) | > 100 µM (inactive) | 87.1 µM (inactive) | > 100 µM (inactive) | > 100 µM (inactive) | > 100 µM (inactive) | > 100 µM (inactive) | > 100 µM (inactive) | > 100 µM (inactive) |  |  |  |  |
| Cn1c(=O)c(C#N)c(O)c2cc3ccccc3nc21 |  |  |  |  | > 100 µM (inactive) | > 100 µM (inactive) | > 100 µM (inactive) | > 100 µM (inactive) |  | > 100 µM (inactive) | > 100 µM (inactive) |  | > 100 µM (inactive) | > 100 µM (inactive) | > 100 µM (inactive) | > 100 µM (inactive) | > 100 µM (inactive) | > 100 µM (inactive) | > 100 µM (inactive) |  |
| Nc1ccccc1C(=O)N/N=C1\C(=O)Nc2ccccc21 | 37.7 µM (inactive) | > 100 µM (inactive) | > 100 µM (inactive) | > 100 µM (inactive) | > 100 µM (inactive) | 56.4 µM (inactive) |  | > 100 µM (inactive) | > 100 µM (inactive) | > 100 µM (inactive) | 64 µM (inactive) | 89.9 µM (inactive) | > 100 µM (inactive) | > 100 µM (inactive) | > 100 µM (inactive) | 35.4 µM (inactive) |  |  |  |  |
| CC1CC(C[N+](=O)[O-])CC2(C1)OCCO2 (stereo not drawn) |  |  |  |  | > 100 µM (inactive) | > 100 µM (inactive) | > 100 µM (inactive) | > 100 µM (inactive) |  | > 100 µM (inactive) | > 100 µM (inactive) | > 100 µM (inactive) | > 100 µM (inactive) | > 100 µM (inactive) | > 100 µM (inactive) | > 100 µM (inactive) | > 100 µM (inactive) | > 100 µM (inactive) |  | > 100 µM (inactive) |
| Cc1cc(=O)oc2c1cc1ccc3cccc4ccc2c1c34 |  |  |  |  | > 100 µM (inactive) | 46.7 µM (inactive) | > 100 µM (inactive) | > 100 µM (inactive) |  | > 100 µM (inactive) | > 100 µM (inactive) | 64.7 µM (inactive) | > 100 µM (inactive) | > 100 µM (inactive) | > 100 µM (inactive) | 64.7 µM (inactive) | > 100 µM (inactive) | > 100 µM (inactive) |  | > 100 µM (inactive) |
| Cc1n[nH]c(CC#N)n1 |  | > 100 µM (inactive) | > 100 µM (inactive) | > 100 µM (inactive) | > 100 µM (inactive) | > 100 µM (inactive) | > 100 µM (inactive) |  | > 100 µM (inactive) | > 100 µM (inactive) | > 100 µM (inactive) | > 100 µM (inactive) | > 100 µM (inactive) | > 100 µM (inactive) | > 100 µM (inactive) | > 100 µM (inactive) |  |  |  |  |
| Cc1ccc(OCC2OC(n3cnc4c(Cl)nc(N)nc43)CC2Oc2ccc(C)cc2)cc1 (stereo not drawn) | 39.4 µM (inactive) | 7.93 µM (inactive) | > 57.1 µM (inactive) | 35.4 µM (inactive) | > 38.1 µM (inactive) | 15.6 µM (inactive) | 33 µM (inactive) | > 43.5 µM (inactive) | 34.3 µM (inactive) | 9.27 µM (inactive) | 19.4 µM (inactive) | 3.61 µM (inactive) | > 69 µM (inactive) | 10.4 µM (inactive) | 68.4 µM (inactive) | 38 µM (inactive) |  |  |  |  |
| COc1ccc(C(=O)NNC(=O)c2nsc3ccccc23)cc1 |  |  |  |  | > 100 µM (inactive) |  | 52.5 µM (inactive) |  | > 100 µM (inactive) | 85.7 µM (inactive) | > 100 µM (inactive) |  |  | > 100 µM (inactive) | > 100 µM (inactive) | > 100 µM (inactive) | > 100 µM (inactive) |  |  | 35.9 µM (inactive) |
| CC/C=C\C/C=C\C/C=C\CCCCCCCC(=O)OC [METHYL LINOLENATE] |  |  |  |  | > 100 µM (inactive) |  | 99.3 µM (inactive) | > 100 µM (inactive) | > 100 µM (inactive) |  | > 100 µM (inactive) | > 100 µM (inactive) | > 100 µM (inactive) | > 100 µM (inactive) | 61.1 µM (inactive) | > 100 µM (inactive) | > 100 µM (inactive) | > 100 µM (inactive) | > 100 µM (inactive) |  |
| O=C(OCCOC(=O)c1ccc2c(c1)C1(SCCS1)c1ccccc1-2)c1ccc2c(c1)C1(SCCS1)c1ccccc1-2 |  |  |  |  | > 100 µM (inactive) | > 100 µM (inactive) | > 100 µM (inactive) | > 100 µM (inactive) | > 100 µM (inactive) | > 100 µM (inactive) | > 100 µM (inactive) | > 100 µM (inactive) | > 100 µM (inactive) | > 100 µM (inactive) | > 100 µM (inactive) | > 100 µM (inactive) | > 100 µM (inactive) | 27.5 µM (inactive) |  | > 100 µM (inactive) |
| CCC(=O)NC(Nc1cccc(F)c1)(C(F)(F)F)C(F)(F)F | 98.6 µM (inactive) | > 100 µM (inactive) | > 100 µM (inactive) | > 100 µM (inactive) | > 100 µM (inactive) | > 100 µM (inactive) | > 100 µM (inactive) |  | > 100 µM (inactive) | > 100 µM (inactive) | > 100 µM (inactive) | 29.6 µM (inactive) | > 100 µM (inactive) | 37.7 µM (inactive) | > 100 µM (inactive) | > 100 µM (inactive) |  |  |  |  |
| COC(=O)C(F)C(Br)C(=O)OC (stereo not drawn) | 16.6 µM (inactive) | 8.51 µM (inactive) | 8.38 µM (inactive) | 3.63 µM (inactive) | 16.1 µM (inactive) | 1.86 µM (inactive) | 1.41 µM (inactive) | 20.9 µM (inactive) | 16.4 µM (inactive) | 5.79 µM (inactive) | 2.69 µM (inactive) | 1.43 µM (inactive) | 18.5 µM (inactive) | 16.9 µM (inactive) | 1.67 µM (inactive) | 30.7 µM (inactive) |  |  |  |  |
| O=C1Nc2ccc(Cl)cc2/C1=C\c1c(Cl)nc2sccn12 |  | 1.91 µM (inactive) | 0.787 µM (active) | 4.93 µM (inactive) | 0.314 µM (active) | > 100 µM (inactive) | 0.0514 µM (active) |  | 14.7 µM (inactive) | 34.2 µM (inactive) | 8.51 µM (inactive) | 5.62 µM (inactive) | 36.8 µM (inactive) | > 100 µM (inactive) |  | > 100 µM (inactive) |  |  |  |  |
| C[C@H]1S[C@@H](c2ccc(Cl)cc2Cl)N(NC(=O)c2ccncc2)C1=O | 94.2 µM (inactive) | > 10 µM (inactive) | 43.6 µM (inactive) | 33 µM (inactive) | 27.3 µM (inactive) |  | 40.2 µM (inactive) | 41.6 µM (inactive) | 95.9 µM (inactive) | 61.8 µM (inactive) | > 100 µM (inactive) | 37.8 µM (inactive) | > 100 µM (inactive) | 71.3 µM (inactive) | 70.6 µM (inactive) | 62.4 µM (inactive) |  |  |  |  |
